Common to all, as to assay: NCI anticancer screen, dose series, 48 h
Test [1] has as its system HCT-116.
Test [2] relates to NCI-H226.
For test [3], the system named is Hs-578T.
For test [4], the system named is SF-539.
The test system of test [5] is SF-295.
The test system of test [6] is PC-3.
In test [7] the test system is SF-268.
Test [8] has as its system SNB-19.
Test [9] concerns HOP-62.
For test [10], the system named is MOLT-4.
Test [11] has as its system SW-620.
Test [12] relates to HL-60.
Test [13] deals with DU-145.
For test [14], the system named is UO-31.
The test system of test [15] is T47D.
Test [16] has as its system NCI-H460.
The test system of test [17] is HT-29.
Test [18] has as its system NCI/ADR-RES.
In test [19] the test system is SK-MEL-2.
The test system of test [20] is RPMI-8226.

We go through 11 compounds from ChEMBL document CHEMBL1201862, “PubChem BioAssay data set” (2004).

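Following 48 hours of exposure in 96-well plates, responses at five concentrations were used to interpolate endpoints linearly. Here, GI50 denotes the concentration required for 50% inhibition of growth.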 Active and inactive are the calls of the source. No stated cut-off is given here; in the data, active = GI50 up to about 1.1 µM and inactive = higher. Where only a bound is given, the exact number is not on record here.

For `CC1C2CC(C/C2=N/O)C1(C)C` (centres undefined), the GI50 in test [1], in test [2], in test [3], in test [4], in test [5] and in test [6] was > 100 µM (inactive) throughout. Also, the GI50 in test [7], in [8], in [9], in test [10], in test [11] and in [12] was > 100 µM (inactive) each time. For the same compound, the GI50 in test [13], in test [14], in test [15], in test [16] and in test [17] was > 100 µM (inactive) each time.
In the case of `CCOP(=O)(OCC)Oc1c(OC)c2[nH]c(C(=O)OC)cc2c2c(C(=O)O)c[nH]c12`, the GI50 in [1], in test [18], in test [3], in test [4], in test [5] and in test [6] was > 100 µM (inactive) throughout. The GI50 in test [7], in test [8], in test [9], in test [10], in test [11] and in test [12] was > 100 µM (inactive) in each case. The GI50 in test [13], in test [14], in test [15], in test [16], in [19] and in [17] was > 100 µM (inactive) in each case.
For `CC(C)C1=CC(=O)C(C)(C2C(O)CC3(C)C4CC=C5C(CCC(OC6OC(CO)C(O)C(O)C6OC6OC(C)C(O)C(O)C6O)C5(C)C)C4(C)C(=O)CC23C)O1` (centres undefined), the GI50 in test [1], in [18], in test [2], in [3], in test [4] and in test [20] was > 100 µM (inactive) throughout. Also, the GI50 in [5], in test [6], in [7], in test [8], in test [9] and in test [10] was > 100 µM (inactive) throughout. Further, the GI50 in test [11], in [13], in [14], in test [15], in [16] and in test [17] was > 100 µM (inactive) in each case.
For the compound `Cc1ccc(/C=c2\c(=O)[nH]c3nc4ccccc4c(=O)n23)cc1`, the GI50 is 28.5 µM (inactive) in test [1]; 39.4 µM (inactive) in test [18]; 31 µM (inactive) in test [3]; 18.8 µM (inactive) in test [4]; 22.9 µM (inactive) in test [20]; 73.1 µM (inactive) in [5]. Besides, the GI50 was 55.5 µM (inactive) in test [6]; 45.5 µM (inactive) in test [7]; 34.9 µM (inactive) in test [8]; > 100 µM (inactive) in test [9]; 38.8 µM (inactive) in test [10]; 21.8 µM (inactive) in [11]. The GI50 is 29.2 µM (inactive) in [12]; 53 µM (inactive) in test [13]; 57.5 µM (inactive) in [14]; 41.9 µM (inactive) in [15]; 62.2 µM (inactive) in test [19].
Regarding `COc1ccccc1C#C/C=C\C#Cc1ccccc1C#N`, the GI50 in [1] was 7.35 µM (inactive); in test [18], 10.4 µM (inactive); in test [3], 25.9 µM (inactive); in test [4] it was 18.6 µM (inactive); in [5], 6.58 µM (inactive); in test [6] it was 13.2 µM (inactive). For the same compound, the GI50 in test [7] is 19.4 µM (inactive); in test [8], 37.8 µM (inactive); in [9], 14.5 µM (inactive); in test [10] it was 0.268 µM (active); in test [11] it was 6.32 µM (inactive); in [12], 4.55 µM (inactive). The GI50 in test [13] was 20 µM (inactive); in [14] it was 10.9 µM (inactive); in test [15] it was 5.86 µM (inactive); in test [16], 13.3 µM (inactive); in test [19] it was 14.9 µM (inactive); in [17], 6.28 µM (inactive).
For `C=C1C(=O)O[C@H]2C[C@@H]1[C@@H](O)[C@H](O)[C@@H](C)CCCC(C)=CCC[C@@]2(C)O`, the GI50 is 16.1 µM (inactive) in test [1]; 18 µM (inactive) in test [3]; 15.2 µM (inactive) in test [4]; 5.05 µM (inactive) in [20]; 54.7 µM (inactive) in [5]; 19.9 µM (inactive) in test [6]. Further, the GI50 in test [7] is 22.6 µM (inactive); in test [8], > 100 µM (inactive); in test [9] it was 24.3 µM (inactive); in [10] it was 4.84 µM (inactive); in [11] it was > 10 µM (inactive); in test [12], 15.1 µM (inactive). The GI50 is 42.7 µM (inactive) in test [13]; 14.8 µM (inactive) in test [14]; 20.2 µM (inactive) in [15]; 23 µM (inactive) in test [16]; 21.6 µM (inactive) in test [19].
In the case of `CC(C)(C)n1[nH]c(=O)n(C(C)(C)C)c1=O`, the GI50 in test [1], in test [3], in [4], in test [20], in test [5] and in test [6] was > 100 µM (inactive) in each case. The GI50 in [7], in test [8], in test [10], in test [11], in test [12] and in test [13] was > 100 µM (inactive) throughout. Besides, the GI50 in [14], in test [15], in [16] and in test [19] was > 100 µM (inactive) throughout.
For the compound `COC(=O)[C@]12CSC[C@H]1C[C@H](c1ccc(N(C)C)cc1)N2`, the GI50 was > 100 µM (inactive) in test [1]; > 100 µM (inactive) in test [18]; > 100 µM (inactive) in test [2]; > 100 µM (inactive) in test [3]; > 100 µM (inactive) in test [4]; > 31.6 µM (inactive) in test [20]. For the same compound, the GI50 in [5], in test [6], in test [7], in test [8], in [9] and in test [11] was > 100 µM (inactive) each time. The GI50 in test [13], in [14], in [15], in test [16] and in test [19] was > 100 µM (inactive) each time.
As for `CCOC(=O)C(CC(C)C)NC(=O)C(N)Cc1ccc(N(CCCl)CCCl)cc1` (centres undefined), the GI50 was 3.12 µM (inactive) in [1]; 9.71 µM (inactive) in test [2]; 18.6 µM (inactive) in [3]; 2.57 µM (inactive) in [4]; 5.61 µM (inactive) in test [20]; 4.39 µM (inactive) in test [5]. The GI50 in [6] was 10.9 µM (inactive); in [7], 3.56 µM (inactive); in test [8] it was 12 µM (inactive); in [9] it was 4.86 µM (inactive); in [10], 0.0637 µM (active); in test [11] it was 6.62 µM (inactive). Moreover, the GI50 in test [12] was 0.134 µM (active); in test [13], 4.9 µM (inactive); in test [14], 2.17 µM (inactive); in test [15], 2.35 µM (inactive); in [16] it was 0.0478 µM (active); in test [19], 4.83 µM (inactive). For the same compound, the GI50 in test [17] is 2.13 µM (inactive).
As to `Fc1cccc(C2SCc3nc4cc5ccccc5cc4n32)c1` (centres undefined), the GI50 in [1], in test [18], in test [2], in test [3], in test [4] and in [20] was > 100 µM (inactive) in each case. In addition, the GI50 in test [5] was > 100 µM (inactive); in test [6], > 100 µM (inactive); in test [7], > 100 µM (inactive); in test [8] it was > 100 µM (inactive); in test [9], 41.5 µM (inactive); in test [10] it was > 100 µM (inactive). In addition, the GI50 in test [11], in test [13], in test [14], in test [15], in test [19] and in test [17] was > 100 µM (inactive) in each case.
`COc1cc2cc(C(=O)N3CC(CCl)c4c3cc(N)c3ccccc43)[nH]c2c(OC)c1OC` (centres undefined): the GI50 in test [1], in test [18], in [2], in test [3], in test [4] and in [20] was < 0.01 µM (active) throughout. In addition, the GI50 in test [5], in [6], in test [7], in [8], in test [9] and in [10] was < 0.01 µM (active) each time. Moreover, the GI50 in test [11], in [13], in test [14], in [15], in [16] and in [19] was < 0.01 µM (active) throughout. Besides, the GI50 in test [17] is < 0.01 µM (active).
